Experimental findings from patent US7666900B2, “ABCA1 stabilizer” (Hykes Laboratories LLC, priority 2004, dated 2010) are described below.

Data set [1] in a line: Toxicity test, oral administration to mice for one week. The data set is classed as in vivo. From the text: Probucol spiroquinone, probucol diphenoquinone, and probucol bisphenol were orally administered to mice for one week.
Data set [2] is described as follows: Increase of blood HDL level (mouse), oral administration. The conditions noted are these: for Plasma HDL Level (Relative Ratio %): 3 hours after last administration, control = 100. The data set is classed as in vivo. The protocol:
Probucol spiroquinone (Synthesis Example 1: 50 mg/kg or 150 mg/kg) or probucol diphenoquinone (Synthesis Example 2: 50 mg/kg or 150 mg/kg) suspended in a 0.5% carboxymethylcellulose solution was orally administered to each group of 3 or 4 mice once a day for 7 days. To a control group, only the 0.5% carboxymethylcellulose solution was administered in the same manner. Animals were subjected to laparotomy under ether anesthesia at 3 hours after the last administration, and blood was collected in the presence of heparin sodium from the heart of each mouse. The blood was centrifuged at 2000 g for 10 minutes to separate plasma. The plasma was applied to electrophoresis using Paragon Electrophoresis System (Beckman Coulter, Inc.) to separate plasma lipoprotein, followed by lipid staining. The images on the gel after the lipid staining were examined to covert the plasma HDL level of each mouse into a digitized form for the evaluation.

The test system of a further data set is ABCA1. Put plainly: ABCA1 expression in THP-1 cells (immunoblotting of total membrane fraction). In kind it is cell-based, human. The conditions noted are these: for ABCA1 Expression Level (Relative Ratio %): PMA-differentiated THP-1 macrophages, compound incorporated into acetyl-LDL, 48 h then 24 h with or without apoAI, non-treated cells = 100; for intracellular ABCA1 expression level compared with non-treated cells (in words): THP-1 cells. The protocol: (§1) THP-1 cells (human leukemia cells: American Type Culture Collection) were cultured for 72 hours in a 10% FBS-RPMI1640 medium (Iwaki Glass Co., Ltd.) under the presence of PMA (phorbol myristate acetate, 3.2×10^−7 M: Wako Pure Chemical Industries, Ltd.) to obtain differentiated macrophages. Probucol spiroquinone (Synthesis Example 1), probucol diphenoquinone (Synthesis Example 2), or probucol bisphenol (Synthesis Example 3) was added to a medium after being incorporated into acetyl-LDL according to a method of Tsujita, et al. [BIOCHEMISTRY, 35, 13011-13020 (1996)]. The cells were cultured in this medium for 48 hours, and then further cultured for 24 hours in the presence or absence of apoAI. The expression levels of intracellular ABCA1 were assayed according to a method disclosed herein below.
The agent-treated cells and non-treated cells were hypotonically disrupted in 5 mM Tris-HCl (pH 8.5), and then centrifuged (650 g for 5 minutes) to precipitate nuclear fractions. The supernatant was centrifuged at 105,000 g for 30 minutes to collect a total membrane fraction. The total membrane was dissolved in a solution containing 0.9 M urea, 0.2% Triton X-100, and 0.1% dithiothreitol, followed by addition of 10% lithium dodecyl sulfate solution at a volume ratio of 1/4. The resultant was subjected to electrophoretic separation using 10% SDS-7% polyacrylamide gel. The separated proteins were transferred and fixed onto PVDF membrane (Bio-Rad), and then subjected to immunoblotting with anti-human ABCA1 rabbit antibody (self-purified by an ordinary technique) to examine expressed ABCA1 protein levels. The obtained bands of the protein were read for density and size with Scion Image (image analysis software: Scion) to convert the results into digitized forms. The relative ratio of the ABCA1 expression level of the drug-treated cells to that of the non-treated cells was calculated to evaluate the ABCA1-expression activity of the assayed compounds.

A further data set deals with THP-1 cells. The experiment in a line: apoAI-dependent HDL-generating reaction in THP-1 cells (cholesterol and phospholipid taken out into the medium). The data set is classed as cell-based, human. The conditions noted are these: for Release of HDL Cholesterol (Relative Ratio %) / Release of Phospholipid (Relative Ratio %): apoAI-dependent, non-treated cells = 100. The protocol: as §1
The cultured cells obtained in the same manner as in Assay Example 1 were examined for cholesterol and phospholipid taken out into the medium by the apoAI-dependent HDL-generating reaction, according to a method of Arakawa, et al. [J. LIPID RES., 41, 1952-1962, (2000)]. The results of the drug-treated cells were compared with that of non-treated cells (control). The resulting data were converted into digitized forms as in Assay Example 1, and the relative ratios of the taken out level in the drug-treated cells to that in the non-treated cells were calculated to evaluate the HDL-generating reaction accelerated by the assayed compounds. For comparison, the HDL-generating reaction accelerated by probucol (Wako Pure Chemical Industries, Ltd.) was examined in the same manner as aforementioned.

A short description of data set [3]: Increase of blood HDL level (rabbit), intravenous microemulsion. The data set is classed as in vivo. The conditions noted are these: i.v. microemulsion once a day for 7 days, control = 100. The protocol:
The microemulsion (0.5 to 10 mL/body) was administered to each group of 4 rabbits via the ear vein once a day for 7 days. To a control group, a microemulsion containing no test drug was administered in the same manner. Blood was collected in the presence of heparin sodium from the ear vein of each rabbit at 3 hours after the last administration. The blood was centrifuged at 2000 g for 10 minutes to separate plasma. The plasma was applied to electrophoresis using Paragon Electrophoresis System (Beckman Coulter, Inc.) to separate plasma lipoprotein, followed by lipid staining. The images on the gel after the lipid staining were examined to covert the plasma HDL level of each rabbit into a digitized form for the evaluation. In reference to the content amount of each compound in the microemulsion, each blood compound level assumed just after the intravenous administration thereof was set as the dose of each compound.

Setting [4] is: 50 mg/kg orally once a day for 7 days.
[5] abbreviates: 150 mg/kg orally once a day for 7 days.
[6] abbreviates: dose as assumed blood level 0.14 μM.
The mark [7] stands for this setting: dose as assumed blood level 0.57 μM.

`CC(C)(C)C1=CC(=C2C=C(C(C)(C)C)C(=O)C(C(C)(C)C)=C2)C=C(C(C)(C)C)C1=O` [Probucol diphenoquinone, 3,5,3′,5′-tetra-t-butyl-4,4′-diphenoquinone]: the “findings in toxicity test” value in data set [1] is given as “no abnormal findings were observed”. For the same compound, the “Plasma HDL Level (Relative Ratio %)” value in data set [2] (setting [4]) is 113%; in data set [2] (setting [5]) it was 180%; in data set [3] (dose as assumed blood level 0.16 μM), 148%; in data set [3] (dose as assumed blood level 0.31 μM), 130%. In addition, the “ABCA1 Expression Level (Relative Ratio %)” value in the data set on ABCA1 came out at 173%. Also, the “intracellular ABCA1 expression level compared with non-treated cells (in words)” value in the data set with ABCA1 was “remarkably elevated”. Moreover, the “Release of HDL Cholesterol (Relative Ratio %)” value in the data set on THP-1 cells was 159%. Also, the “Release of Phospholipid (Relative Ratio %)” value in the data set with THP-1 cells was found to be 200%.

Take `CC(C)(Sc1cc(C(C)(C)C)c(O)c(C(C)(C)C)c1)Sc1cc(C(C)(C)C)c(O)c(C(C)(C)C)c1` [Probucol, 4,4′-(isopropylidenedithio)bis(2,6-di-t-butylphenol), reference compound]: in the data set with THP-1 cells, the “apoAI-dependently taken out HDL cholesterol (in words)” value is reported as “no apoAI-dependently taken out HDL cholesterol was observed”, the “level of taken out phospholipid as fraction of non-treated cells” value is reported as “less than ⅓”, the “Release of HDL Cholesterol (Relative Ratio %)” value is reported as 0% and the “Release of Phospholipid (Relative Ratio %)” value came out at 34%.

Turning to `CC1(C)SC2(C=C(C(C)(C)C)C(=O)C(C(C)(C)C)=C2)C2(C=C(C(C)(C)C)C(=O)C(C(C)(C)C)=C2)S1` [Probucol spiroquinone, 2,4,9,11-tetrakis(1,1-dimethylethyl)-14,14-dimethyl-13,15-dithiadispiro[5.0.5.3]pentadeca-1,4,8,11-tetraene-3,10-dione], the “findings in toxicity test” value in data set [1] was “no abnormal findings were observed”. For the same compound, the “Plasma HDL Level (Relative Ratio %)” value in data set [2] (setting [4]) is on record as 120%; in data set [2] (setting [5]), 124%; in data set [3] (setting [6]), 157%; in data set [3] (setting [7]), 194%. The “plasma HDL level increase compared with control group” value in data set [2] (50 or 150 mg/kg orally once a day for 7 days) was “about 1.2 times”. The “ABCA1 Expression Level (Relative Ratio %)” value with ABCA1 is given as 191%. In addition, the “intracellular ABCA1 expression level compared with non-treated cells (in words)” value in the data set on ABCA1 is given as “remarkably elevated”. Further, in the data set with THP-1 cells, the “Release of HDL Cholesterol (Relative Ratio %)” value is recorded as 148%. For the same compound, the “Release of Phospholipid (Relative Ratio %)” value in the data set with THP-1 cells came to 151%.

With `CC(C)(C)c1cc(-c2cc(C(C)(C)C)c(O)c(C(C)(C)C)c2)cc(C(C)(C)C)c1O` [Probucol bisphenol, 4,4′-dihydroxy-3,5,3′,5′-tetra-t-butyldiphenyl], in data set [1], the “findings in toxicity test” value is reported as “no abnormal findings were observed”. Also, in the data set on ABCA1, the “ABCA1 Expression Level (Relative Ratio %)” value stood at 153% and the “intracellular ABCA1 expression level compared with non-treated cells (in words)” value is reported as “remarkably elevated”. Also, in the data set with THP-1 cells, the “Release of HDL Cholesterol (Relative Ratio %)” value is reported as 137% and the “Release of Phospholipid (Relative Ratio %)” value is on record as 144%. For the same compound, in data set [3] (setting [6]), the “Plasma HDL Level (Relative Ratio %)” value worked out at 145%. For the same compound, the “Plasma HDL Level (Relative Ratio %)” value in data set [3] (setting [7]) is 135%.
